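Tested at 5 concentrations; 48 h exposure; 96-well plates; endpoints linearly interpolated, else capped at highest concentration. GI50 = concentration required for 50% inhibition of growth. TGI: concentration producing complete growth inhibition.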

Among the test systems are MALME-3M melanoma; SK-MEL-2 melanoma; SF-268 CNS; CCRF-CEM leukemia; HCT-116 colon; NCI-H460 lung; LOX IMVI melanoma; RPMI-8226 leukemia; 786-0 renal; HT29 colon.
Common to all, as to test: NCI-60 cell line screen, 48 h

For `CC1OC2CC(=O)OC2C2=C1C(=O)c1c(O)cccc1C2=O` (stereo not given), the GI50 was 0.0235 µM in the assay with MALME-3M melanoma; 0.0885 µM in the assay on SK-MEL-2 melanoma; 0.163 µM with SF-268 CNS; 0.0269 µM in the assay on CCRF-CEM leukemia; 0.0286 µM in the assay on HCT-116 colon; 0.415 µM with NCI-H460 lung. Further, the GI50 in the assay with LOX IMVI melanoma is 0.0342 µM; in the assay with RPMI-8226 leukemia it was 0.0587 µM; in the assay on 786-0 renal it was 0.149 µM; in the assay with HT29 colon, 0.0312 µM. Moreover, the TGI with MALME-3M melanoma is 0.0695 µM; with SK-MEL-2 melanoma, 0.272 µM; in the assay on SF-268 CNS, 0.436 µM; in the assay on CCRF-CEM leukemia, 0.501 µM; with HCT-116 colon, 0.107 µM; in the assay on NCI-H460 lung, 1.75 µM. The TGI in the assay with LOX IMVI melanoma stood at 0.129 µM; in the assay with RPMI-8226 leukemia, 0.602 µM; in the assay with 786-0 renal, 0.292 µM; in the assay on HT29 colon, 0.113 µM.

Consider `CCCCN(CCCC)CC(C(=O)Nc1ccc([N+](=O)[O-])cc1[N+](=O)[O-])/C(C)=N\NC(=S)NN` (stereo not given), for which the TGI in the assay on MALME-3M melanoma, with SK-MEL-2 melanoma, in the assay on SF-268 CNS, with CCRF-CEM leukemia, in the assay on HCT-116 colon and in the assay with NCI-H460 lung was greater than 100 µM each time. Moreover, the TGI with LOX IMVI melanoma, with RPMI-8226 leukemia, in the assay with 786-0 renal and in the assay with HT29 colon was greater than 100 µM throughout.

As for `COC(=O)C1=C(c2ccc3c(c2)OCO3)O[C@H](c2cc(OC)c(OC)c(OC)c2)[C@H]1COC(C)=O`, the TGI with MALME-3M melanoma was 92.5 µM; in the assay on SK-MEL-2 melanoma, greater than 100 µM; with SF-268 CNS, greater than 100 µM; with CCRF-CEM leukemia it was greater than 100 µM; in the assay with HCT-116 colon, 19.6 µM; with NCI-H460 lung, greater than 100 µM. Further, the TGI with LOX IMVI melanoma was 55.3 µM; in the assay with RPMI-8226 leukemia it was greater than 100 µM; with 786-0 renal, 42.3 µM; in the assay on HT29 colon it was 11.5 µM.

Turning to `O=C(CCCn1ccnc1[N+](=O)[O-])NCCn1cncc1[N+](=O)[O-]`, the TGI with MALME-3M melanoma, in the assay on SK-MEL-2 melanoma, with SF-268 CNS, in the assay on CCRF-CEM leukemia, in the assay on HCT-116 colon and in the assay on NCI-H460 lung was greater than 100 µM throughout. Further, the TGI in the assay on LOX IMVI melanoma, in the assay with RPMI-8226 leukemia, with 786-0 renal and in the assay on HT29 colon was greater than 100 µM each time.

As for `COc1ncnc(C2CC2)c1-c1ncc2cnn(Cc3ccc(-c4nc(C(F)(F)F)cn4C(C)C)cc3)c2n1`, the GI50 with MALME-3M melanoma is 17.8 µM; with SK-MEL-2 melanoma, 14.5 µM; in the assay with SF-268 CNS, 16.2 µM; in the assay on CCRF-CEM leukemia, 34 µM; in the assay on HCT-116 colon, 22.2 µM; in the assay with NCI-H460 lung, 18.4 µM. Besides, the GI50 with LOX IMVI melanoma is 14.8 µM; in the assay on RPMI-8226 leukemia it was 10.9 µM; in the assay on 786-0 renal, 31.4 µM; in the assay with HT29 colon, 17.9 µM. Also, the TGI with MALME-3M melanoma was 57.3 µM; with SK-MEL-2 melanoma, 30.4 µM; in the assay on SF-268 CNS, 80.9 µM; with CCRF-CEM leukemia, greater than 100 µM; in the assay on HCT-116 colon it was greater than 100 µM; with NCI-H460 lung, 85.4 µM. Besides, the TGI in the assay on LOX IMVI melanoma is 31.7 µM; in the assay with RPMI-8226 leukemia, 42.2 µM; in the assay on 786-0 renal, greater than 100 µM; in the assay with HT29 colon, greater than 100 µM.

As for `Oc1ccc(Cl)cc1Cc1cc(Cl)cc(Cl)c1O`, the GI50 in the assay with MALME-3M melanoma was 3.68 µM; with SK-MEL-2 melanoma, 5.53 µM; in the assay on SF-268 CNS it was 3.82 µM; in the assay with CCRF-CEM leukemia, 6.53 µM; in the assay on HCT-116 colon it was 3.53 µM; in the assay with NCI-H460 lung, 3.22 µM. The GI50 with LOX IMVI melanoma is 4.83 µM; in the assay with RPMI-8226 leukemia, 3.09 µM; in the assay on 786-0 renal, 8.98 µM; in the assay with HT29 colon, 19.8 µM. Also, the TGI is 18.7 µM in the assay with MALME-3M melanoma; 29 µM in the assay with SK-MEL-2 melanoma; 57.9 µM with SF-268 CNS; 88 µM with CCRF-CEM leukemia; 12.9 µM in the assay on HCT-116 colon; 13.2 µM in the assay on NCI-H460 lung. Moreover, the TGI in the assay with LOX IMVI melanoma turned out to be 19.2 µM; in the assay on RPMI-8226 leukemia, 11.9 µM; with 786-0 renal it was 30.1 µM; in the assay with HT29 colon it was 43.9 µM.

Consider `CNC(=S)NC1CCCCC1NC(=S)NC` (stereo not given), for which the TGI with MALME-3M melanoma, in the assay with SK-MEL-2 melanoma, with SF-268 CNS, with CCRF-CEM leukemia, with HCT-116 colon and in the assay on NCI-H460 lung was greater than 100 µM throughout. The TGI in the assay with LOX IMVI melanoma, in the assay with RPMI-8226 leukemia, in the assay with 786-0 renal and with HT29 colon was greater than 100 µM each time.

Consider `CNCCNc1c2c(c(NCCNC)c3c(CN(C)C)c[nH]c13)C(=O)c1ccccc1C2=O`, for which the GI50 in the assay on MALME-3M melanoma is 6.73 µM; with SK-MEL-2 melanoma, 2.94 µM; with SF-268 CNS, 1.3 µM; with CCRF-CEM leukemia, 0.716 µM; in the assay with HCT-116 colon, 1.55 µM; in the assay with NCI-H460 lung it was 1.46 µM. Besides, the GI50 is 2.35 µM with LOX IMVI melanoma, 0.938 µM with RPMI-8226 leukemia, 4.87 µM in the assay with 786-0 renal and 3.41 µM with HT29 colon. Besides, the TGI with MALME-3M melanoma was found to be 15.5 µM; in the assay on SK-MEL-2 melanoma it was 16.4 µM; in the assay with SF-268 CNS, 9.21 µM; in the assay with CCRF-CEM leukemia, 34.2 µM; in the assay on HCT-116 colon, 8.29 µM; in the assay with NCI-H460 lung, 11.2 µM. In addition, the TGI in the assay with LOX IMVI melanoma was 6.04 µM; in the assay on RPMI-8226 leukemia, 5.2 µM; in the assay with 786-0 renal, 19.5 µM; in the assay with HT29 colon it was 31.6 µM.

On to `COc1ccc2c(c1)C(C)Cc1c(Cl)ncnc1N2C` (stereo not given), for which the GI50 is 0.294 µM in the assay with MALME-3M melanoma; 0.405 µM with SK-MEL-2 melanoma; 0.359 µM in the assay on SF-268 CNS; 2.14 µM with CCRF-CEM leukemia; 0.434 µM in the assay on HCT-116 colon; 0.493 µM in the assay with NCI-H460 lung. The GI50 in the assay on LOX IMVI melanoma was 0.218 µM; in the assay on RPMI-8226 leukemia, 0.629 µM; in the assay on 786-0 renal, 0.309 µM; with HT29 colon, 0.33 µM. The TGI in the assay with MALME-3M melanoma was 3.63 µM; with SK-MEL-2 melanoma, 2.12 µM; in the assay with SF-268 CNS, 22.9 µM; with CCRF-CEM leukemia it was greater than 55.8 µM; in the assay on HCT-116 colon, 4.56 µM; in the assay on NCI-H460 lung it was greater than 100 µM. Further, the TGI in the assay on LOX IMVI melanoma is 0.517 µM; in the assay with RPMI-8226 leukemia it was 16 µM; with 786-0 renal, 5.45 µM; with HT29 colon, 8.13 µM.

The values are drawn from PubChem BioAssay (NCI).
